Calls of active or inactive are those of the source. How the calls were made is not given here.
biological target: Induced myeloid leukemia cell differentiation protein Mcl-1 (Homo sapiens) (UniProt Q07820); assay: blockers of Bid binding to Mcl-1 – biochemical, TR-FRET, dose response (AID 1418); conditions: Mcl-1/Bid peptide binding, TR-FRET (europium/Dy647), 2 hr
Sequence (Q07820 whole entry, looked up): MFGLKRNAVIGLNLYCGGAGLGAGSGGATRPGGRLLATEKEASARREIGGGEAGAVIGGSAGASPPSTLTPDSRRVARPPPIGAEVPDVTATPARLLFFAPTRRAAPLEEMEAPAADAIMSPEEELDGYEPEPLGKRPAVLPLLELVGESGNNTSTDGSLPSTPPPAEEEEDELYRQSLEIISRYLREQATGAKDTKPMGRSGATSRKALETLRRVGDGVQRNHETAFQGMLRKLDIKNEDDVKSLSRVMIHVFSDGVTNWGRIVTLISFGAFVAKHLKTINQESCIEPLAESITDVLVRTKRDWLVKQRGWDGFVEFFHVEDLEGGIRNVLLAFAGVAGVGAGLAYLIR

SMILES | IC50
Cc1n[nH]c(C)c1S(=O)(=O)N1CCN(c2ccccn2)CC1 | > 54 µM (inactive)
O=C(CC(C(=O)O)c1c[nH]c2ccccc12)c1ccccc1 (configuration not stated) | > 54 µM (inactive)
O=C(CSc1nc(-c2ccccc2)nc2c1Cc1ccccc1O2)Nc1ccc(C(=O)O)cc1 | 3.03 µM
CCOC(=O)c1sc(N2N=C(C)C(N=Nc3cccc(C)c3)C2=O)nc1C (configuration not stated) | 1.42 µM
O=C(O)c1cccc(-n2cccc2/C=C2/NC(=O)N(c3ccc(Cl)cc3)C2=O)c1 | 0.53 µM
O=c1/c(=C\c2cc([N+](=O)[O-])cc([N+](=O)[O-])c2O)sc2nc3ccccc3n12 | 1.07 µM
Cc1ccc(-n2cccc2/C=C2/C(=N)N3C(=NC2=O)SN=C3S(C)(=O)=O)cc1Cl | 10.9 µM
COc1ccc(C2c3c(C)nn(-c4ccccc4)c3NC(=O)N2c2ccccc2)cc1 (configuration not stated) | > 54 µM (inactive)
O=C(O)c1ccc2ncsc2c1 | 0.52 µM
COc1cc(/C=C2\SC(=O)N(c3ccc(Cl)cc3)C2=O)cc([N+](=O)[O-])c1O | 1.58 µM
CCN1C(=O)/C(=C\c2ccc(-c3ccc([N+](=O)[O-])cc3OC)o2)SC1=Nc1cccc(C(=O)O)c1 | > 54 µM (inactive)
Cc1ccc(Cn2nc(C)c(NC(=O)CSc3nc4c(c(C(F)(F)F)n3)CCc3ccccc3-4)c2C)cc1 | 1.91 µM
Cc1ccc([N+](=O)[O-])cc1-c1ccc(/C=C(\C#N)c2[nH]nc(N)c2C#N)o1 | 3.74 µM
COc1cc(OC)cc(C(=O)N[C@H](C(=O)OCC(=O)NC(=O)c2cccn2C)C(C)C)c1 | > 54 µM (inactive)
COc1ccc(CCNC(=O)c2ccc(Cl)cc2Cl)cc1OC | > 54 µM (inactive)
O=C(NC(=S)Nc1ccc2c(c1)OCCO2)c1ccccc1F | > 54 µM (inactive)
CCCCCCCCCCCCCCCC(O)C(N)CO (configuration not stated) | > 54 µM (inactive)
CC(Cc1ccccc1)NCC(=O)Nc1cc(N(C)C)nc2ccccc12 (configuration not stated) | > 54 µM (inactive)
CCOC(=O)C1CCN(C(=O)c2cc(S(=O)(=O)N3CCOCC3)c(Cl)cc2Cl)CC1 | > 54 µM (inactive)
O=C(O)CCN1C(=O)/C(=C\c2ccc(-c3nc4ccccc4s3)o2)SC1=S | 0.57 µM
CCC1Oc2ccc(C)cc2N(CC(=O)N(Cc2cccnc2)Cc2ccc(C)o2)C1=O (configuration not stated) | > 54 µM (inactive)
CC1=C(C#N)C(=O)NC(=O)/C1=C\c1ccc(-c2ccc(C)cc2[N+](=O)[O-])o1 | 1.09 µM
COc1ccccc1NC(=O)C(=O)N/N=C/c1ccc([N+](=O)[O-])s1 | > 54 µM (inactive)
CCc1cccc(CC)c1NC(=S)N1CCn2cccc2C1c1cccnc1 (configuration not stated) | > 54 µM (inactive)
O=C(N/N=C/c1ccncc1)c1cccc(S(=O)(=O)Nc2ccc(Cl)cc2)c1 | 2.24 µM

SMILES | IC50
NC(=S)n1[nH]c(-c2ccc([N+](=O)[O-])cc2)c(N=Nc2ccc(Cl)cc2)c1=O | 0.56 µM
O=C(COC(=O)CCS(=O)(=O)c1ccc(Cl)cc1)Nc1ncc(Cl)cc1Cl | > 54 µM (inactive)
Cc1ccc(C(=O)NNC(=O)CCC(=O)Nc2cc(C)on2)cc1 | > 54 µM (inactive)
CC(C)[n+]1ccn(C2=C([O-])c3ccccc3C(=O)/C2=N\S(=O)(=O)c2ccccc2)c1 | > 54 µM (inactive)
CCOc1ccccc1Nc1nc(-c2sc(NC(=O)c3ccc([N+](=O)[O-])cc3)nc2C)cs1 | 1.37 µM
O=C(Cn1nnc(-c2ccccc2NC(=O)c2cccs2)n1)Nc1ccccc1 | > 54 µM (inactive)
Cc1ccc(/C=N/NC(=O)c2cc3c(ccc4ccccc43)o2)cc1[N+](=O)[O-] | 11.1 µM
Cc1ccc(NC(=O)c2ccc3ncsc3c2)cc1S(=O)(=O)N(C)C | inactive
COc1cc2c(cc1OC)CN(CC(=O)Nc1ccc(C#N)cc1)CC2 | > 54 µM (inactive)
Cc1ccc(-c2ccc(/C=C3/NC(=O)NC3=O)o2)cc1[N+](=O)[O-] | inactive
CNNC(=O)C(=O)NNS(=O)(=O)c1ccccc1 | > 54 µM (inactive)
Cc1nnc(SCc2cc(=O)oc3ccc4ccccc4c23)n1Cc1ccccc1 | > 54 µM (inactive)
O=C(NN1C(=O)C2C(C1=O)C1C=CC2C12CC2)c1ccc(Cl)cc1 (configuration not stated) | > 54 µM (inactive)
O=C(c1ccccc1)N1CCN(C2CCCCCC2)CC1 | > 54 µM (inactive)
COC(=O)c1ccc(-c2nc3cc(Cl)c(N)cc3s2)cc1 | > 54 µM (inactive)
CCOC(=O)c1cc(-c2ccc(/C=C3/C(=O)NC(=O)C(C#N)=C3C)o2)ccc1Cl | 0.79 µM
Cc1ccccc1C(=O)NC(=S)Nc1sc2c(c1C#N)CCCC2 | > 54 µM (inactive)
CN(C)S(=O)(=O)c1cccc(N=c2scc(-c3ccc4c(c3)NC(=O)CO4)n2CC2CCCO2)c1 (configuration not stated) | > 54 µM (inactive)
Cc1ccc(S(=O)(=O)N2CN3CCN(C3)C2)cc1 | > 54 µM (inactive)
CSc1nc(N(C)CCO)c2sc3nc(-c4ccco4)c4c(c3c2n1)CCC4 | > 54 µM (inactive)
COc1ccc(NC(=O)c2[nH]ncc2[N+](=O)[O-])cc1 | > 54 µM (inactive)
CN(C)S(=O)(=O)c1cc(S(=O)(=O)N(C)C)c(Cl)cc1N | > 54 µM (inactive)
CC(=O)c1ccc(Oc2ccc(C(C)=O)cc2)cc1 | > 54 µM (inactive)
Nc1nnc(SCC(=O)N2CCN(c3ccccc3)CC2)n1-c1ccccc1 | > 54 µM (inactive)
S=C(NCc1ccc(Cl)cc1)NC1CCN(Cc2ccccc2)CC1 | > 54 µM (inactive)

SMILES | IC50
CCC(CC)C(=O)Oc1c(Sc2ccccc2[N+](=O)[O-])c(C)nn1C(C)(C)C | > 54 µM (inactive)
CCS(=O)(=O)N1CCN(C(C)CCc2ccccc2)CC1 (configuration not stated) | > 54 µM (inactive)
CN(C)CC(O)CN(c1ccccc1)c1ccccc1 (configuration not stated) | > 54 µM (inactive)
CCN1C(=O)c2cccc3c(NC(=O)C4CCCCC4)ccc1c23 | > 54 µM (inactive)
O=C1c2ccccc2C(=O)N1Cc1nc2ccccc2c(=O)n1-c1cccnc1 | > 54 µM (inactive)
O=C(Cn1c(C(F)(F)F)nc2ccccc21)c1ccc(F)cc1 | > 54 µM (inactive)
O=C(N/N=C/c1ccc(-c2ccc(Cl)c(C(=O)O)c2)o1)c1cc2c(ccc3ccccc32)o1 | 8.18 µM
O=c1[nH]c(=O)n(CCc2ccccc2)c(O)c1C=NCc1ccc2c(c1)OCO2 | inactive
FC(F)(F)c1ccncc1-c1nnnn1-c1ccc(Cl)cc1 | > 54 µM (inactive)
Cc1ccccc1OCCNC(=O)CNC(=O)c1ccccc1O | > 54 µM (inactive)
COC(=O)c1cc(NC(=S)NCc2ccc(Cl)cc2)cc(C(=O)OC)c1 | > 54 µM (inactive)
Cc1nnc(Sc2c(N)n(C)c(=O)[nH]c2=O)s1 | > 54 µM (inactive)
Cc1ccc2cccc(Oc3ncnc4scc(-c5ccc(Cl)cc5)c34)c2n1 | > 54 µM (inactive)
CN(CCN(C)C(C)(C)C)C(=O)C(c1ccccc1)c1ccccc1 | > 54 µM (inactive)
COC(=O)c1cc2sc(Cl)cc2n1CC(=O)Nc1cccc(SC)c1 | > 54 µM (inactive)
O=C1N=C2N(CCN3CCCCC3)c3ccccc3N2/C1=C\c1ccc([N+](=O)[O-])o1 | > 54 µM (inactive)
COc1ccc(-c2cc(C(F)(F)F)nc(N3CCOCC3)n2)cc1OC | > 54 µM (inactive)
CC(C)(C)CC(=O)O/N=C(\N)c1ccncc1 | > 54 µM (inactive)
O=C(Cc1ccccc1)Nc1scc(-c2ccccc2)c1C(=O)N1CCOCC1 | > 54 µM (inactive)
CCCCOc1ccc(CC2C(=O)N(C)C(=O)N(C)C2=O)cc1 | > 54 µM (inactive)
N=C1/C(=C/c2cccn2-c2cccc([N+](=O)[O-])c2)C(=O)N=C2SC=CN12 | 12.5 µM
CC1(c2ccc(Cl)cc2Cl)OCC(Cn2ccnc2)O1 (configuration not stated) | > 54 µM (inactive)
O=C(c1cnn2c(C(F)(F)F)cc(-c3cccs3)nc12)N1CCOCC1 | > 54 µM (inactive)
CC(C)(C)NC(=O)c1sccc1C(=O)O | > 54 µM (inactive)
O=C(Nc1nccs1)c1cccc(N2C(=O)c3cccc4c([N+](=O)[O-])ccc(c34)C2=O)c1 | 0.53 µM

SMILES | IC50
Cc1cc(=O)oc2cc(OCC(=O)N/N=C/c3cc([N+](=O)[O-])ccc3O)ccc12 | 5.58 µM
CC1CCC(C(C)C)C(OC(=O)C[n+]2cc(-c3ccc(Cl)cc3)n3c2CCC3)C1 (configuration not stated) | > 54 µM (inactive)
C#Cc1ccc([C@@H]2C=C(C(=O)N3CCN(Cc4ccc5c(c4)OCO5)CC3)O[C@H](OCCCCO)C2)cc1 | > 54 µM (inactive)
COc1cc(NC(=O)C2CCN(S(=O)(=O)c3cccc4nonc34)CC2)cc(OC)c1 | > 54 µM (inactive)
CC(=O)Oc1ccc(Cl)cc1/C=C/c1ccc2ccccc2n1 | > 54 µM (inactive)
COc1cccc(N2CCN(C(=O)NC3CCCCC3)CC2)c1 | > 54 µM (inactive)
COc1ccc(N=Nc2ccc(O)c3ncccc23)cc1 | 15.1 µM
CCOc1ccc(-c2nnc(-c3ccccc3)n2-c2ccccc2)cc1 | inactive
COc1ccc2[nH]c3c(=O)n(Cc4ccco4)cnc3c2c1 | > 54 µM (inactive)
CC(C)(C)c1cc(-c2csc(Nc3ccccc3)[n+]2Cc2ccc(C(=O)O)cc2)cc(C(C)(C)C)c1O | 0.66 µM
O=C(Cc1c(F)cccc1Cl)Nc1ccon1 | > 54 µM (inactive)
O=C(O)COc1ccccc1C(Nc1ccccn1)c1cc(Cl)c2cccnc2c1O (configuration not stated) | 5.42 µM
CCCOc1ccc(C(=O)NCC(c2ccco2)N(C)C)cc1OC (configuration not stated) | > 54 µM (inactive)
CSc1nc(N(CCO)CCO)c2sc3nc(-c4ccco4)c4c(c3c2n1)CCC4 | > 54 µM (inactive)
Cc1cccc(C(=O)N2CCc3cc(-c4nc(NC(=O)Cn5nnc6ccccc6c5=O)sc4C)ccc32)c1 | > 54 µM (inactive)
O=c1cc(-c2ccccc2Cl)oc2c(NS(=O)(=O)c3cc(Cl)cc(Cl)c3O)ccc(O)c12 | 7.73 µM
Clc1ccc(OCCCNCc2ccccc2)c(Br)c1 | > 54 µM (inactive)
CNc1ccc(Br)cc(C(=O)/C=C/c2cccc(Cl)c2Cl)c1=O | 3.46 µM
Cc1ccc2nc(-c3ccc(SCC(=O)Nc4nnc(C)s4)nc3)[nH]c2c1 | 8.48 µM
C/C(=N/NC(=O)c1ccccn1)c1ccc(O)cc1 | > 54 µM (inactive)
COc1ccc(NS(=O)(=O)c2cccc(NC(=O)CCC(=O)c3ccc(Cl)cc3)c2)cc1 | > 54 µM (inactive)
COc1ccccc1CCc1nnc(CCC(=O)NC(C)Cc2cccnc2)o1 (configuration not stated) | > 54 µM (inactive)

Source: PubChem BioAssay AID1418 (Emory University Molecular Libraries Screening Center, 2008)
